Measured values reported in patent US5942494A, “Stimulation of gene expression and synthesis of heat shock protein 72/73 (HSP 70)” (The Trustees of Columbia University in the City of New York, priority 1996, dated 1999).
Square brackets hold non-standard residues; d marks the D form. Peptide text beside a SMILES is read from it. Nle = CCCC[C@H](N)C(=O)O

Experiments:
albumin = experiment: Immunoprecipitation of albumin from radiolabeled HepG2 cells; assay type: cell-based, human; conditions: HepG2, ALLN 4 hours
Method: FIGS. 7A-7B: Effects of ALLN on the biosynthesis of other members of Hsp family and related proteins. HepG2 cells were pre-treated and radiolabeled with or without ALLN for 4 hours as described in FIG. 1. Cell lysates were used for SDS-PAGE (A), or for immunoprecipitation with anti-Hsp25, -Hsp27, -Hsp60, -Hsp70, -Hsp86, -Hsp90, -Hsp104, -Bip, or -albumin antibodies respectively (1 μg/ml) (B). Because the anti-Hsp25, -Hsp27, -Hsp60 and Hsp90 antibodies are from a rat source, rabbit anti-rat IgG antibody was added after the first incubation, and the incubation was extended for another 1 hour at 4° C. before collection with protein A-Sepharose.Immunoprecipitates were loaded for SDS-PAGE and aliquoted for scintillation counting and plotting. Each value was presented as mean ±S.D. from three individual culture dishes.
HepG2 cells were preincubated for 4 hours in serum-free MEM and then radiolabeled with ^3 H-Leucine (150 μCi/ml) in a serum-free, leucine-free medium. […] Cell lysates containing equal amounts of trichloroacetic acid (TCA)-insoluble radioactivity were used for immunoprecipitations by incubating with individual monoclonal antibody (1 μg/ml) for 2.5 hours at 4° C. […]

Hsp70 = experiment: Cellular Hsp70 levels in CHO cells; assay type: cell-based, Chinese hamster
apoB = conditions: Sakata, et al., 1993, unpublished data; cited from earlier work

CCCC[C@@H](C=O)NC(=O)[C@H](CC(C)C)NC(=O)[C@H](CC(C)C)NC(C)=O [ALLN, N-acetyl-leucyl-leucyl-norleucinal] (Ac-Leu-Leu-[Nle]-aldehyde)
Effect on albumin (albumin): no effects
Response of cellular Hsp70 levels (Hsp70): increasing cellular Hsp70 levels
Protection of apoB (apoB): protected
